Results as given in patent US20250304914A1, “METHODS OF PRODUCING ENGINEERED IMMUNE CELLS” (Takeda Pharmaceutical Company Limited, priority 2022, published 2025).

Assays:
Assay type in all cases: cell-based
[1] = tested on: SK-HEP-1 cells; experiment: Introduction of CAR gene into SK-HEP-1 cells, flow cytometry; settings: Example 8, 0.1% DMSO in transduction step, FIG. 8A
Experimental: SK-HEP-1 cell culture medium: MEM, L-Gln (+) (Thermo Fisher Scientific) was prepared by adding 10% FBS (Biosera Co., Ltd.), 1% Non-essential amino acids (Fujifilm Wako Pure Chemical Industries, Ltd.), 1% Penicillin-Streptomycin solution (Fujifilm Wako Pure Chemical Industries, Ltd.), and 1 mM Sodium pyruvate (Fujifilm Wako Pure Chemical Industries, Ltd.). Dimethyl Sulfoxide (DMSO) (Wako Pure Chemical Industries, Ltd) was added to the respective media to obtain the designated levels and used. SK-HEP-1 cells (ATCC) were diluted with SK-HEP-1 cell culture medium so that they were 2.0×10^6 cells/mL or less, seeded under 6.07×10^5 cells/cm^2 on culture plates that had been coated with retronectin (Takara Bio Co., Ltd.) and a retrovirus into which a CAR gene had been introduced, and cultured for 4 days to introduce the CAR gene into SK-HEP-1 cells. CAR-T cells were produced as described above. SK-Hep-1 cell expressing CAR were produced as discussed above. 0.1% DMSO was added in the transduction_step during its production. After production, the rate of introduction of the CAR-gene was measured by flow cytometry.

[2] = tested on: T cells; experiment: Rate of introduction of the CAR gene into T cells by flow cytometry (CAR-T production); settings: for CAR-positive rate: 0.0037%, 0.011%
Experimental: (§1) CAR-T cell culture medium: 2.6% OpTmizer Expansion Basal Supplement (Thermo Fisher Scientific), 1% L-Glutamine (Thermo Fisher Scientific), and 1% Streptomycine, 2% CTS Immune Cell SR (Thermo Fisher Scientific) were added to OpTmizer CTS T-Cell Expansion basal medium (Thermo Fisher Scientific) to prepare a basal cell culture medium. To this was added 20 IU/mL or 40 IU/mL of MACS GMP IL-2 (Miltenyi Biotec). Dimethyl Sulfoxide (DMSO) (Wako Pure Chemical Industries, Ltd) was added to the respective media to obtain the designated levels and used. After Leukopak (Hemacare) was thawed, the cells were diluted in CAR-T cell culture medium to less than or equal to 2.0×10^6 cells/mL (pre-production raw material). Cell suspension: MACS GMP T-Cell TransACT (Miltenyi Biotec)=17.5:1 were seeded in culture bags and cultured in about 48 hours (cell activation step). The activated cells were diluted in culture medium using a LOVO Cell processing system (Fresenius Kabi) or a centrifuge, seeded under 6.07×10^5 cells/cm^2 in culture bags that had been previously coated with Retronectin® (Takara Bio Co., Ltd.) and a retrovirus into which a CAR gene or a CAR gene, a IL-7 gene, and a CCL19 gene had been introduced, and cultured until the next day (gene transfer process). Culture bottles (G-REX, Wilson Wolf) were seeded under 2.2×10^6 cells/cm^2 and cultured for 3-7 days to produce CAR-T cells (final products). The CAR gene used has the base sequence encoding the amino acid sequence shown in SEQ ID NO: 1, IL-7 gene used has the base sequence encoding the amino acid sequence shown in SEQ ID NO: 2, and CCL19 gene used has the base sequence encoding the amino acid sequence shown in SEQ ID NO: 3 (the same applies to the following SK-HEP-1 cells). See Table 1 for the afore mentieond sequences. CAR introduction rates into T cells were determined using CAR-targeting antigens on a BD FACSCanto II flow cytometer (BD Biosciences). The immunophenotype of T cells was measured using an anti-CD4 antibody (clone SK3, cat #344604, BioLegend), an anti-CD8 antibody (clone SK1, cat #344710, BioLegend), an anti-CCR7 antibody (clone G043H7, cat #353204, BioLegend), an anti-CD45RA antibody (clone L48, cat #337167, BD Biosciences), an anti-CD27 antibody (clone 0323, cat #302836, BioLegend), and an anti-CD95 antibody (clone DX2, cat #305612, BioLegend), and CCR7/CD45RA/CD27/CD95 positive cells in a CD4 positive or CD8 positive T cell population were used as stem cell memory T cells, and CCR7/CD45RA positive cells other than these were used as naive T cells.

[3] = tested on: T cells; experiment: Immune phenotype of T cells by flow cytometry (naive and stem cell memory T cells, CAR-T production)
Experimental: as §1

[4] = tested on: NK92 cells; experiment: Introduction of mCherry gene into NK92 cells, flow cytometry
Experimental: NK92 cell culture medium: RPMI, L-Gln (+) (Thermo Fisher Scientific) was prepared by adding 20% FBS (Biosera Co., Ltd.). Dimethyl Sulfoxide (DMSO) (Wako Pure Chemical Industries, Ltd) was added to the respective media to obtain the designated levels and used. NK92 cells (ATCC) were diluted with NK92 cell culture medium so that they were 2.0×10^6 cells/mL or less, seeded under 6.07×10^5 cells/cm^2 on culture plates with or without DMSO for 2 days. After that, NK92 cells were cultured on retronectin (Takara Bio Co., Ltd.) and a retrovirus into which a mCherry gene had been introduced, and cultured for 2 days to introduce the mCherry gene into NK92 cells. mCherry positive NK92 cells were produced as described above. DMSO from 0.01% to 0.1% was added in the pre-cultre step before transduction during its production. After production, the rate of introduction of the mCherry-gene was measured by flow cytometry.

[5] = Example 1, armored, activation step, 0.0037%, 0.011%, 0.033%, 0.1% DMSO vs no DMSO
[6] = Example 1, armored, activation step, 0.011%, 0.033%, 0.1% DMSO vs no DMSO
[7] = Example 3, armored, transduction step, 0.011%, 0.033%, 0.1%, 0.3% DMSO vs no DMSO
[8] = Example 6, unarmored, ex vivo expansion step, 0.3% DMSO vs no DMSO
[9] = Example 7, unarmored, ex vivo expansion step, 0.6-2.7% DMSO vs no DMSO

With `C[S+](C)[O-]` [DMSO, dimethyl sulfoxide] the “CAR gene transduction in SK-Hep-1” value [1] was “suppresses”, the CAR-positive rate ([2]; Example 1, CAR-T expressing IL-7 and CCL19 (armored), 0.033%, 0.1% DMSO in activation step (heading, FIG. 1; text says transduction step), vs no DMSO group) was “significantly increased” and the CAR-positive rate ([2]; Example 2, CAR-T (unarmored), 0.033%, 0.1%, 0.3% DMSO in activation step (heading, FIG. 2; text says transduction step), vs no DMSO group) was “significantly increased”. The CAR-positive rate ([2]; Example 3, armored (IL-7, CCL19), gene transduction step, 0.033%, 0.1% DMSO vs no DMSO group) was “significantly increased”, the CAR-positive rate ([2]; Example 4, unarmored, gene transduction step, 0.033% DMSO vs no DMSO group) was “increased” and the “CAR transduction efficiency (CAR-T)” value ([2]; Example 8, 0.1% DMSO in transduction step, FIG. 8B) was “significantly improves”. For the same compound, the “CD8 positive naive T cells” value [3, 5] was “significantly increased”, the “CD8 positive stem cell memory T cells” value [3, 5] was “significantly increased” and the “CD4 positive naive T cells” value [3, 6] was “significantly increased”. For the same compound, the “CD4 positive stem cell memory T cells” value [3, 6] was “significantly increased”, the “CD4 positive stem cell memory T cells” value ([3]; Example 2, unarmored, activation step, 0.0037%, 0.011%, 0.033%, 0.1%, 0.3% DMSO vs no DMSO) was “significantly increased” and the “CD8 positive stem cell memory T cells” value ([3]; Example 2, unarmored, activation step, 0.1% and 0.3% DMSO vs no DMSO) was “significantly increased”. For the same compound, the “CD8 positive stem cell memory T cells” value ([3]; Example 3, armored, transduction step, 0.0037%, 0.011%, 0.033%, 0.1% DMSO vs no DMSO) was “increased”, the “CD8 positive naive T cells” value ([3]; Example 3, armored, transduction step, 0.011% and 0.033% DMSO vs no DMSO) was “increased” and the “CD4 positive naive T cells” value [3, 7] was “significantly increased”. For the same compound, the “CD4 positive stem cell memory T cells” value [3, 7] was “significantly increased”, the “CD8 positive stem cell memory T cells” value ([3]; Example 4, unarmored, transduction step, 0.0037%, 0.011%, 0.033%, 0.01% and 0.3% DMSO vs no DMSO) was “increased” and the “CD4 positive naive T cells” value ([3]; Example 4, unarmored, transduction step, 0.011% and 0.033% DMSO vs no DMSO) was “increased”. For the same compound, the “CD8 positive stem cell memory T cells” value ([3]; Example 5, armored, ex vivo expansion step, 0.3% DMSO vs no DMSO) was “significantly increased”, the “CD4 positive naive T cells” value [3, 8] was “increased” and the “CD4 positive stem cell memory T cells” value [3, 8] was “increased”. The “CD4 positive naive T cells” value [3, 9] was “increased”, the “CD4 positive stem cell memory T cells” value [3, 9] was “increased” and the “CD8 positive naive T cells” value [3, 9] was “increased”. For the same compound, the “CD8 positive stem cell memory T cells” value [3, 9] was “increased”, the mCherry transduction efficiency ([4]; Example 9, NK92 cells, 0.03% and 0.1% DMSO in pre-culture step 2 days before transduction, FIG. 9B) was “significantly improves” and the “transduction efficiency in NK92 cells (mCherry positive cells)” value ([4]; FIG. 9B legend, 0.01%-0.1% DMSO added in preculture step before transduction) was “improved”.
